# Marks after values point to notes of the source that are not given here. Strand notation (5' to 3'): a small letter for the sugar, then the base; units joined by * are phosphorothioate-linked, units joined directly phosphodiester-linked; [ ] holds rarer units or linkages, { } end groups; capitals alone tell only the bases. k = constrained ethyl (cEt); [5mC] = 5-methylcytosine; d = 2'-deoxy (DNA)
# System: Yap1 mRNA
# Experiment: Antisense inhibition of human Yap1 in A-431 cells by cEt gapmers, single dose (Example 2, RTS4814)
# Format: cell-based
# Conditions: Table 18; A-431 cells, 5,000 cells per well, free uptake, 2,000 nM modified oligonucleotide, approx. 48 hours; RTS4814; normalized to RIBOGREEN; Yap1 mRNA as percent of untreated control
# Summary of the method: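 Single-dose knockdown screen of 3-10-3 cEt phosphorothioate gapmers at 2,000 nM added by free uptake to A-431 cells. After roughly 48 h, RNA was isolated and Yap1 transcript measured by RT-qPCR, with results given as % UTC.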
row,Substance,YAP1 (% UTC)
1,1074372 (antisense k[5mC]*kT*kT*dT*dG*dG*dT*dT*dG*dA*dT*dA*dG*kT*kA*kT) [Compound 1074372],10 % UTC
2,1074404 (antisense kG*kG*k[5mC]*dT*dT*dA*dT*dG*dG*dA*dA*dA*dT*kT*kT*k[5mC]) [Compound 1074404],16 % UTC
3,1074436 (k[5mC]*kA*kT*dG*dA*dA*dG*d[5mC]*dA*dT*d[5mC]*dT*dG*kA*k[5mC]*kT; antisense) [Compound 1074436],31* % UTC
4,1074468 (k[5mC]*k[5mC]*kA*d[5mC]*d[5mC]*dG*dA*d[5mC]*d[5mC]*d[5mC]*dT*dG*d[5mC]*k[5mC]*kA*kA; antisense) [Compound 1074468],34 % UTC

# Same assay, conditions: Table 19; A-431 cells, 5,000 cells per well, free uptake, 2,000 nM modified oligonucleotide, approx. 48 hours; RTS4814; normalized to RIBOGREEN; Yap1 mRNA as percent of untreated control
row,Substance,YAP1 (% UTC)
1,1074373 (antisense kG*k[5mC]*kT*dT*dT*dG*dG*dT*dT*dG*dA*dT*dA*kG*kT*kA) [Compound 1074373],26 % UTC
2,1074405 (antisense kG*k[5mC]*k[5mC]*dT*dG*dA*dA*dA*dA*d[5mC]*dT*dG*d[5mC]*kA*kA*k[5mC]) [Compound 1074405],27 % UTC
3,1074437 (kA*k[5mC]*kA*dT*dG*dA*dA*dG*d[5mC]*dA*dT*d[5mC]*dT*kG*kA*k[5mC]; antisense) [Compound 1074437],4* % UTC
4,1074469 (k[5mC]*k[5mC]*k[5mC]*dA*d[5mC]*d[5mC]*dG*dA*d[5mC]*d[5mC]*d[5mC]*dT*dG*k[5mC]*k[5mC]*kA; antisense) [Compound 1074469],77 % UTC

# Same assay, conditions: Table 20; Yap1 mRNA, percent of untreated control; 3-10-3 cEt gapmers targeting SEQ ID NO.: 1 and 2
row,Substance,YAP1 (% UTC)
1,1074374 (antisense kT*kG*k[5mC]*dT*dT*dT*dG*dG*dT*dT*dG*dA*dT*kA*kG*kT) [Compound 1074374],13 % UTC
2,1074406 (antisense kA*kA*kA*dG*dT*dA*dT*d[5mC]*dT*dT*dG*d[5mC]*dT*kG*kG*kA) [Compound 1074406],16 % UTC
3,1074438 (kG*kA*k[5mC]*dA*dT*dG*dA*dA*dG*d[5mC]*dA*dT*d[5mC]*kT*kG*kA; antisense) [Compound 1074438],1* % UTC
4,1074470 (k[5mC]*k[5mC]*k[5mC]*d[5mC]*d[5mC]*d[5mC]*dA*d[5mC]*d[5mC]*dG*dA*d[5mC]*d[5mC]*k[5mC]*kT*kG; antisense) [Compound 1074470],69 % UTC

# Same assay, conditions: Table 21; Yap1 mRNA, percent of untreated control; 3-10-3 cEt gapmers targeting SEQ ID NO.: 1 and 2
row,Substance,YAP1 (% UTC)
1,1074343 (antisense kA*kG*kA*d[5mC]*dA*dT*d[5mC]*d[5mC]*d[5mC]*dG*dG*dG*dA*kG*kA*kA) [Compound 1074343],18 % UTC
2,1074375 (antisense kG*k[5mC]*kA*dG*dG*dG*dT*dG*d[5mC]*dT*dT*dT*dG*kG*kT*kT) [Compound 1074375],33 % UTC
3,1074407 (antisense kT*kA*kA*dA*dG*dT*dA*dT*d[5mC]*dT*dT*dG*d[5mC]*kT*kG*kG) [Compound 1074407],6 % UTC
4,1074439 (k[5mC]*kT*kG*dT*dG*dA*d[5mC]*dA*dT*dG*dA*dA*dG*k[5mC]*kA*kT; antisense) [Compound 1074439],2* % UTC
5,1074471 (k[5mC]*k[5mC]*k[5mC]*d[5mC]*d[5mC]*d[5mC]*d[5mC]*dA*d[5mC]*d[5mC]*dG*dA*d[5mC]*k[5mC]*k[5mC]*kT; antisense) [Compound 1074471],69 % UTC

# Same assay, conditions: Table 22; Yap1 mRNA as percent of untreated control; 3-10-3 cEt gapmers; single dose
row,Substance,YAP1 (% UTC)
1,1074344 (antisense kT*kG*kA*dG*dA*d[5mC]*dA*dT*d[5mC]*d[5mC]*d[5mC]*dG*dG*kG*kA*kG) [Compound 1074344],99 % UTC
2,1074376 (antisense kA*kA*k[5mC]*dG*dG*dT*dT*d[5mC]*dT*dG*d[5mC]*dT*dG*kT*kG*kA) [Compound 1074376],44 % UTC
3,1074408 (antisense kG*kA*kT*dT*dA*dA*dA*dG*dT*dA*dT*d[5mC]*dT*kT*kG*k[5mC]) [Compound 1074408],23 % UTC
4,1074440 (kG*k[5mC]*kT*dG*dT*dG*dA*d[5mC]*dA*dT*dG*dA*dA*kG*k[5mC]*kA; antisense) [Compound 1074440],38* % UTC
5,1074472 (kA*kA*k[5mC]*d[5mC]*d[5mC]*d[5mC]*d[5mC]*d[5mC]*d[5mC]*dA*d[5mC]*d[5mC]*dG*kA*k[5mC]*k[5mC]; antisense) [Compound 1074472],107 % UTC

# Same assay, conditions: Table 23; Yap1 mRNA as percent of untreated control; 3-10-3 cEt gapmers; single dose
row,Substance,YAP1 (% UTC)
1,1074345 (antisense kT*k[5mC]*kT*dG*dA*dG*d[5mC]*dT*dA*dT*dT*dG*dG*kT*k[5mC]*kG) [Compound 1074345],8 % UTC
2,1074377 (antisense kA*kA*kA*d[5mC]*dG*dG*dT*dT*d[5mC]*dT*dG*d[5mC]*dT*kG*kT*kG) [Compound 1074377],52 % UTC
3,1074409 (antisense kG*kG*kA*dT*dT*dA*dA*dA*dG*dT*dA*dT*d[5mC]*kT*kT*kG) [Compound 1074409],6 % UTC
4,1074441 (k[5mC]*kA*kA*dA*d[5mC]*dT*dA*dA*dA*dT*dG*d[5mC]*dT*kG*kT*kG; antisense) [Compound 1074441],5* % UTC

# Same assay, conditions: Table 24; Yap1 mRNA as percent of untreated control; 3-10-3 cEt gapmers targeting SEQ ID NO.: 1, and 2
row,Substance,YAP1 (% UTC)
1,1074346 (antisense kA*kT*k[5mC]*dT*dG*dA*dG*d[5mC]*dT*dA*dT*dT*dG*kG*kT*k[5mC]) [Compound 1074346],10 % UTC
2,1074378 (antisense kG*kA*kA*dA*d[5mC]*dG*dG*dT*dT*d[5mC]*dT*dG*d[5mC]*kT*kG*kT) [Compound 1074378],31 % UTC
3,1074410 (antisense kT*kA*kG*dA*dG*dG*dA*dT*dT*dA*dA*dA*dG*kT*kA*kT) [Compound 1074410],32 % UTC
4,1074442 (kG*kA*k[5mC]*d[5mC]*dA*dG*dT*dA*dA*dA*dT*d[5mC]*dA*kT*kG*kT; antisense) [Compound 1074442],21 % UTC

# Same assay, conditions: Table 25; Yap1 mRNA as percent of untreated control; 3-10-3 cEt gapmers targeting SEQ ID NO.: 1, and 2
row,Substance,YAP1 (% UTC)
1,1074347 (antisense kG*kT*kT*dA*dA*dG*dG*dA*dA*dA*dG*dG*dA*kT*k[5mC]*kT) [Compound 1074347],34 % UTC
2,1074379 (antisense kT*kG*kG*dG*dA*dA*dA*d[5mC]*dG*dG*dT*dT*d[5mC]*kT*kG*k[5mC]) [Compound 1074379],20 % UTC
3,1074411 (antisense kT*kG*kT*dG*dA*dA*dA*dG*dA*dG*dG*dT*d[5mC]*kA*kG*k[5mC]) [Compound 1074411],3 % UTC
4,1074443 (kT*k[5mC]*kA*dG*dA*d[5mC]*d[5mC]*dA*dG*dT*dA*dA*dA*kT*k[5mC]*kA; antisense) [Compound 1074443],7 % UTC

# Same assay, conditions: Table 32; Yap1 mRNA, percent of untreated control; 3-10-3 cEt gapmers targeting SEQ ID NO.: 1, and 2
row,Substance,YAP1 (% UTC)
1,1074354 (antisense kG*kG*kA*d[5mC]*dA*d[5mC]*dT*dG*dT*dA*dG*d[5mC]*dT*kG*k[5mC]*kT) [compound 1074354],24 % UTC
2,1074386 (k[5mC]*kA*kG*dG*dA*dA*dT*dG*dG*d[5mC]*dT*dT*d[5mC]*kA*kA*kG; antisense) [compound 1074386],39 % UTC

# Same assay, conditions: Table 33; Yap1 mRNA, percent of untreated control; 3-10-3 cEt gapmers targeting SEQ ID NO.: 1, and 2
row,Substance,YAP1 (% UTC)
1,1074355 (antisense kA*kG*kG*dG*dA*d[5mC]*dA*d[5mC]*dT*dG*dT*dA*dG*k[5mC]*kT*kG) [compound 1074355],55 % UTC
2,1074387 (k[5mC]*k[5mC]*kA*dG*dG*dA*dA*dT*dG*dG*d[5mC]*dT*dT*k[5mC]*kA*kA; antisense) [compound 1074387],32 % UTC

# Same assay, conditions: Yap1 mRNA as percent of untreated control; A-431 cells; 3-10-3 cEt gapmers targeting SEQ ID NO.: 1, and 2; Table 30
row,Substance,YAP1 (% UTC)
1,1074352 (antisense k[5mC]*kA*kT*dG*d[5mC]*dT*dT*dA*dG*dT*d[5mC]*d[5mC]*dA*k[5mC]*kT*kG) [compound 1074352],69 % UTC
2,1074384 (kT*kT*k[5mC]*dA*dA*dG*dG*dT*dA*dG*dT*d[5mC]*dT*kG*kG*kG; antisense) [compound 1074384],35 % UTC
3,1074416 (k[5mC]*kT*kT*dT*dA*dG*dA*dG*d[5mC]*d[5mC]*dA*dA*d[5mC]*kT*kG*kT; antisense) [compound 1074416],9 % UTC

# Same assay, conditions: Yap1 mRNA as percent of untreated control; A-431 cells; 3-10-3 cEt gapmers targeting SEQ ID NO.: 1, and 2; Table 31
row,Substance,YAP1 (% UTC)
1,1074353 (antisense kG*kA*k[5mC]*dA*d[5mC]*dT*dG*dT*dA*dG*d[5mC]*dT*dG*k[5mC]*kT*k[5mC]) [compound 1074353],17 % UTC
2,1074385 (k[5mC]*kT*kT*d[5mC]*dA*dA*dG*dG*dT*dA*dG*dT*d[5mC]*kT*kG*kG; antisense) [compound 1074385],17 % UTC
3,1074449 (k[5mC]*kT*kA*dA*dT*dG*dA*dT*dA*dG*d[5mC]*dA*d[5mC]*kT*kA*kG; antisense) [compound 1074449],36 % UTC

# Source: patent publication US11214803B2, “Modulators of YAP1 expression” (Ionis Pharmaceuticals, Inc., priority 2019, dated 2022)
